Data as given in ChEMBL document CHEMBL3132803 (Medchemcomm, 2013).
pIC50: −log10 of the molar value.

What was measured:
DU-145 = experiment: Cytotoxicity against human DU145 cells assessed as inhibition of cell proliferation after 24 hrs by MTT assay; format: functional, cell-based; settings: DU-145, 24 h
[1] = Cytotoxicity against human […] cells assessed as inhibition of cell proliferation after 3 days by coulter counter analysis; format: functional, cell-based; settings: 72 h
Raji = experiment: Cytotoxicity against human Raji cells assessed as inhibition of cell proliferation after 3 days by coulter counter analysis; format: functional, cell-based; settings: 72 h
[2] = AUC in Sprague-Dawley rat CSF at 2.5 mg/kg, iv administered as single dose by CE-UV analysis; format: ADME, organism-based; parameters: dose 2.5 mg/kg, route intravenous; settings: cerebrospinal fluid
[3] = AUC in Sprague-Dawley rat serum at 2.5 mg/kg, iv administered as single dose by CE-UV analysis; format: ADME, organism-based; parameters: dose 2.5 mg/kg, route intravenous
Serum = experiment: Ratio of AUC in CSF to AUC in serum of Sprague-Dawley rat at 2.5 mg/kg, iv; format: ADME, organism-based; parameters: dose 2.5 mg/kg, route intravenous

CCN1C(=O)N[C@H]2[C@@H]3NC(=O)c4cccn4[C@@H]3C[C@]21O
pIC50 (DU-145): < 5.00

CCN1C(=O)N[C@H]2[C@@H]3NC(=O)c4ccc(Br)n4[C@@H]3C[C@]21O
pIC50 (DU-145): < 5.00

CN1C(=O)N[C@H]2[C@@H]3NC(=O)c4ccc(-c5ccccc5)n4[C@@H]3C[C@]21O
pIC50 [1]: 5.82 | pIC50 (DU-145): 5.22 | pIC50 (Raji): 5.42

CN1C(=O)N[C@@H]2[C@H]3NC(=O)c4ccc(Br)n4[C@H]3C[C@@]21O
pIC50 (DU-145): < 5.00

COc1ccc(CN2C(=O)N[C@H]3[C@@H]4NC(=O)c5ccc(Br)n5[C@@H]4C[C@]32O)cc1
pIC50 (DU-145): < 5.00

CN1C(=O)N[C@H]2[C@@H]3NC(=O)c4cccn4[C@@H]3C[C@]21O
pIC50 [1]: 5.52 | pIC50 (DU-145): < 5.00 | pIC50 (Raji): 5.50

CN1C(=O)N[C@H]2[C@@H]3NC(=O)c4ccc(Cl)n4[C@@H]3C[C@]21O
pIC50 [1]: 7.10 | AUC [2]: 3.75 µM·h | AUC [3]: 22.8 µM·h | pIC50 (DU-145): 5.92 | pIC50 (Raji): 6.74 | Ratio AUC (Serum): 16%

O=C1N[C@H]2[C@@H]3NC(=O)c4cccn4[C@@H]3C[C@H]2O1
pIC50 [1]: < 5.00 | pIC50 (Raji): < 5.00

CCN1C(=O)N[C@H]2[C@@H]3NC(=O)c4cc(Cl)c(Cl)n4[C@@H]3C[C@]21O
pIC50 [1]: 6.36 | AUC [2]: 7.6 µM·h | AUC [3]: 24.8 µM·h | pIC50 (DU-145): 5.85 | pIC50 (Raji): 6.21 | Ratio AUC (Serum): 30.7%

CN1C(=O)N[C@H]2[C@@H]3NC(=O)c4ccc(Br)n4[C@@H]3C[C@]21O [AGELASTATIN A]
pIC50 [1]: 5.55 | AUC [2]: 3.41 µM·h | AUC [3]: 53.2 µM·h | pIC50 (DU-145): 5.64 | pIC50 (Raji): 6.85

CN1C(=O)N[C@H]2[C@@H]3NC(=O)c4ccc(-c5ccc(N)cc5)n4[C@@H]3C[C@]21O
pIC50 (DU-145): < 5.00

CNC(=O)N[C@H]1[C@@H]2NC(=O)c3ccc(Br)n3[C@@H]2C[C@H]1O
pIC50 [1]: < 5.00 | pIC50 (Raji): < 5.00

CN1C(=O)N[C@H]2[C@@H]3NC(=O)c4ccc(C5CC5)n4[C@@H]3C[C@]21O
pIC50 [1]: 6.00 | pIC50 (DU-145): 5.30 | pIC50 (Raji): 6.40

CCN1C(=O)N[C@H]2[C@@H]3NC(=O)c4ccc(Cl)n4[C@@H]3C[C@]21O
pIC50 [1]: 6.55 | AUC [2]: 10.1 µM·h | AUC [3]: 37.5 µM·h | pIC50 (DU-145): 5.59 | pIC50 (Raji): 6.52 | Ratio AUC (Serum): 27%

CNC(=O)N[C@H]1[C@@H]2NC(=O)c3cccn3[C@@H]2C[C@H]1O
pIC50 [1]: < 5.00 | pIC50 (Raji): < 5.00
